Where a name gives a salt, the structure may show the parent alone.
What was measured:
ALT in blood = test: Suppression of LPS/D-galactosamine-induced hepatitis; format: in vivo; conditions: tail vein, 10 minutes before LPS/D-galactosamine, ALT in blood at 6 hours, male C57BL/6 mice; for inhibition in vivo at 10 mg/kg / inhibition in vivo at 5 mg/kg: Mus musculus, iv
Protocol: Suppression of LPS/D-galactosamine-induced hepatitis
LPS (5 μg/kg)D-galactosamine (500 mg/kg) in physiological saline was intraperitoneally injected to male C57BL/6 mice to induce hepatitis. Six hours after the injection of LPS/D-galactosamine in physiological saline, blood was taken from the mice orbital venosus plexus. Plasma was separated from the blood, and ALT in blood was determined by a biochemical analyzer. The test sample was administered from the tail vein at 10 minutes before the injection of LPS/D-galactosamine in physiological saline, and the degree of suppression was investigated. The suppression by the test sample is shown in the ratio relative to the suppression in the control group.
Suppression (%)=100-(ALT amount of group treated with test sample/ALT amount of control group)×100

IL-8 = test: Suppression of production of inflammatory cytokines: IL-8 in LPS-stimulated human peripheral blood monocytes (ELISA); format: cell-based; conditions: supernatant 20 hours after LPS
Protocol: (§1) Suppression of production of inflammatory cytokines
(§2) Thirty ml of human peripheral blood added with heparin was placed on Ficol-Paque (15 ml), and centrifuged at 400 G for 40 minutes at room temperature. The obtained monocyte fraction layers were collected and washed three times with E-MEM medium. The cells were adjusted to a final concentration of 0.5×10^5 cells/800 μl with RPMI-1640 medium containing 5% bovine fetal serum (2-mercaptoethanol), and seeded in a 24 well plant by 800 μl. A test sample (100 μl) was added and 100 μl of lipopolysarcharide (LPS, 100 μg/ml) was added one hour later. The supernatant was taken at 20 hours after stimulation with LPS, and amounts of various cytokines were determined using an ELISA kit.

IL-1 = test: Suppression of production of inflammatory cytokines: IL-1 in LPS-stimulated human peripheral blood monocytes (ELISA); format: cell-based; conditions: Monocyte; LPS-stimulated human peripheral blood monocytes, supernatant 20 hours after LPS, ELISA; read-out: IC50 (μM) IL-1β
Protocol: as §1, §2

TNF-α = test: Suppression of production of inflammatory cytokines: TNF-α in LPS-stimulated human peripheral blood monocytes (ELISA); format: cell-based; conditions: Monocyte; LPS-stimulated human peripheral blood monocytes, supernatant 20 hours after LPS, ELISA; read-out: IC50 (μM) TNF
Protocol: as §1, §2

SMILES | IC50 (IL-8; Homo sapiens, Monocyte, 20 h) [µM] | other results
COC(=O)[C@H](Cc1ccccc1)NC(=O)c1cc(Cl)c(OCCN2CCN[C@@H](C)C2)c(Cl)c1O [Example 61] |  | inhibition in vivo at 10 mg/kg (ALT in blood): 6%
CCOC(=O)C(Cc1ccccc1)NC(=O)c1cc(Cl)c(OCCCCNC)c(Cl)c1OC(C)=O (centres unmarked) [Example 117] | < 0.01 | inhibition in vivo at 10 mg/kg (ALT in blood): 54%
CCCCCCOC(=O)[C@H](Cc1ccccc1)NC(=O)c1cc(Cl)c(OCCCCNC)c(Cl)c1O [Example 31] | < 0.01 | inhibition in vivo at 5 mg/kg (ALT in blood; dose 5 mg/kg): 87%
CNCCCCOc1c(Cl)cc(C(=O)N[C@@H](Cc2ccccc2)C(=O)OC)c(O)c1C [Example 10] | 0.6 | inhibition in vivo at 10 mg/kg (ALT in blood): 77%
COC(=O)[C@H](Cc1ccccc1)NC(=O)c1ccc(OCCCN)cc1O [Example 3] | > 30 | IC50 (IL-1): > 30 µM; IC50 (TNF-α): 14 µM
CC(C)OC(=O)[C@H](Cc1ccccc1)NC(=O)c1cc(Cl)c(OCCCCN)c(Cl)c1O [Example 27] | < 0.01 | inhibition in vivo at 10 mg/kg (ALT in blood): 67%
CNCCCCOc1c(Cl)cc(C(=O)N[C@@H](Cc2ccccc2)C(=O)O)c(O)c1Cl [Example 126, N-[3,5-Dichloro-2-hydroxy-4-(4-methylaminobutoxy)benzoyl]-L-phenylalanine hydrochloride] | 0.8 | inhibition in vivo at 10 mg/kg (ALT in blood): 27%
CNCCCCOc1c(Cl)cc(C(=O)N[C@@H](Cc2ccccc2)C(=O)OC2CCCCC2)c(O)c1Cl [Example 46] | < 0.01 | inhibition in vivo at 10 mg/kg (ALT in blood): 57%
COC(=O)[C@H](Cc1ccccc1)NC(=O)c1ccc(OCCCCCCN)cc1O [Example 6] | 14 | IC50 (IL-1): 14 µM; IC50 (TNF-α): 6 µM
COC(=O)[C@H](Cc1ccccc1)NC(=O)c1cc(Cl)c(OCCOCCN(C)C)c(Cl)c1O [Example 37] | 0.3 | inhibition in vivo at 10 mg/kg (ALT in blood): 80%
CNCCCCOc1c(Cl)cc(C(=O)N[C@@H](Cc2ccccc2)C(=O)NCC(=O)O)c(O)c1Cl [Example 50] | 28 | inhibition in vivo at 10 mg/kg (ALT in blood): 15%
NCCCCOc1c(Cl)cc(C(=O)N[C@@H](Cc2ccccc2)C(=O)OC2CCCCC2)c(O)c1Cl [Example 45] | 0.004 | inhibition in vivo at 10 mg/kg (ALT in blood): 30%; IC50 (IL-1): 0.0008 µM; IC50 (TNF-α): 0.004 µM
NCCCCOc1c(Cl)cc(C(=O)N[C@@H](Cc2ccccc2)C(=O)O)c(O)c1Cl [Example 127] | 0.2 | inhibition in vivo at 5 mg/kg (ALT in blood; dose 5 mg/kg): 82%
COC(=O)[C@H](Cc1ccccc1)NC(=O)c1cc(Cl)c(OCCN2CCNC(C)C2)c(Cl)c1O (some centres unmarked) [Example 60] | 0.03 | inhibition in vivo at 10 mg/kg (ALT in blood): 42%
CNCCOc1c(Cl)cc(C(=O)N[C@@H](Cc2ccccc2)C(=O)OC)c(O)c1Cl [Example 11] | 0.4 | 
CCOC(=O)C(Cc1ccccc1)NC(=O)c1cc(Cl)c(CCCN2CCC(N)CC2)c(Cl)c1O (centres unmarked) [Example 103] | 0.7 | 
CCOC(=O)C(Cc1ccccc1)NC(=O)c1cc(Cl)c(OCCC2CCNCC2)c(Cl)c1O (centres unmarked) [Example 69] | < 0.001 | 
COC(=O)[C@H](Cc1ccccc1)NC(=O)c1ccc(OCCCCCN)cc1O [Example 5] | 6 | IC50 (IL-1): 75 µM; IC50 (TNF-α): 6 µM
CCOC(=O)C(Cc1ccccc1)NC(=O)c1cc(Cl)c(OCCCCNC)cc1O (centres unmarked) [Example 71] | 0.04 | 
CCOC(=O)C(Cc1ccccc1)NC(=O)c1cc(Cl)c(OCCCN2CCN(C)CC2)c(Cl)c1O (centres unmarked) [Example 68] | 0.001 | 
CCOC(=O)C(Cc1ccccc1)NC(=O)c1cc(Cl)c(CCCCCN(C)C)cc1O (centres unmarked) [Example 94] | 1 | 
COC(=O)[C@H](Cc1ccccc1)NC(=O)c1cc(Cl)c(OCCCCO)c(Cl)c1O [Example 87] | 0.2 | 
NCCCCOc1c(Cl)cc(C(=O)N[C@@H](Cc2ccccc2)C(=O)ON=C2CCCCC2)c(O)c1Cl [Example 57] | 0.05 | 
CC1CN(CCOc2c(Cl)cc(C(=O)N[C@@H](Cc3ccccc3)C(=O)O)c(O)c2Cl)CCN1 (some centres unmarked) [Example 129] | 2 | 
COC(=O)[C@H](Cc1ccccc1)NC(=O)c1cc(Cl)c(OCCN2CCN(C)CC2)c(Cl)c1O [Example 58] | 0.02 | 
CNCCCCOc1ccc(C(=O)N[C@@H](Cc2ccccc2)C(=O)OC)c(O)c1Cl [Example 7] | 8 | 

SMILES | IC50 (IL-8; Homo sapiens, Monocyte, 20 h) [µM] | other results
COC(=O)[C@H](Cc1ccccc1)NC(=O)c1cc(Cl)c(OCCN2CCN[C@@H](C)C2)c(Cl)c1OC(=O)c1ccccc1 [Example 123] |  | inhibition in vivo at 10 mg/kg (ALT in blood): 41%
CCOC(=O)COC(=O)[C@H](Cc1ccccc1)NC(=O)c1cc(Cl)c(OCCCCN)c(Cl)c1O [Example 43] | 0.03 | 
CCOC(=O)C(Cc1ccccc1)NC(=O)c1cc(Cl)c(OCCCCNC)c(Cl)c1O (centres unmarked) [Example 22] |  | inhibition in vivo at 10 mg/kg (ALT in blood): 51%; IC50 (IL-8): < 0.01 µM
CNCCCCOc1cc(O)c(C(=O)N[C@@H](Cc2ccccc2)C(=O)OC)cc1C [Example 76] | 0.3 | 
CC(C)COC(=O)[C@H](Cc1ccccc1)NC(=O)c1cc(Cl)c(OCCCCN)c(Cl)c1O [Example 28] | < 0.01 | 
CNCCCCOc1c(Cl)cc(C(=O)N[C@@H](CC2CCCCC2)C(=O)OC)c(O)c1Cl [Example 34] | 2 | 
CCOC(=O)[C@H](Cc1ccccc1)NC(=O)c1cc(Cl)c(OCCN2CCN(C)CC2)c(Cl)c1O [Example 2, N-{3,5-Dichloro-2-hydroxy-4-[2-(4-methylpiperazin-1-yl)ethoxy]-benzoyl}-L-phenylalanine ethyl ester dihydrochloride] | 0.01 | inhibition in vivo at 10 mg/kg (ALT in blood): 65%
CCOC(=O)C(Cc1ccccc1)NC(=O)c1cc(Cl)c(OCCN2CCN(C)CC2)c(Cl)c1OC(C)=O (centres unmarked) [Example 125] | 0.01 | 
CCOC(=O)C(Cc1ccccc1)N(C)C(=O)c1cc(Cl)c(OCCCCN)c(Cl)c1O (centres unmarked) [Example 20] | 29 | 
CCOC(=O)C(Cc1ccccc1)NC(=O)c1cc(Cl)c(OC(=O)C2(CC)CCNCC2)cc1O (centres unmarked) [Example 156] | 2 | 
NCCCCOc1c(Cl)cc(C(=O)N[C@@H](Cc2ccccc2)C(=O)Nc2ccc(F)cc2)c(O)c1Cl [Example 141] | 3 | 
CCOC(=O)[C@H](Cc1ccccc1)NC(=O)c1ccc(-c2ccc(OCCCCNC)cc2)cc1 [Example 147, N-[4-[4-(4-Methylaminobutoxy)phenyl]benzoyl]-L-phenylalanine ethyl ester hydrochloride] | 2 | 
CCOC(=O)C(Cc1ccccc1)NC(=O)c1cc(C)c(OCCCCNC)c(C)c1O (centres unmarked) [Example 77] | 3 | 
COC(=O)[C@H](Cc1ccccc1)NC(=O)c1cc(Cl)c(OCCCCNC(=N)N)c(Cl)c1O [Example 32] | 0.5 | inhibition in vivo at 10 mg/kg (ALT in blood): 78%
CN1CCC(OC(=O)[C@H](Cc2ccccc2)NC(=O)c2cc(Cl)c(OCCCCN)c(Cl)c2O)CC1 [Example 48] | 0.2 | 
CC1CCCC(C)C1OC(=O)[C@H](Cc1ccccc1)NC(=O)c1cc(Cl)c(OCCCCN)c(Cl)c1O (some centres unmarked) [Example 47] | 3 | 
CC(C)(C)OC(=O)[C@H](Cc1ccccc1)NC(=O)c1cc(Cl)c(OCCCCN)c(Cl)c1O [Example 30] | 0.6 | 
Cl.NCCCCOc1c(Cl)cc(C(=O)N[C@@H](Cc2ccccc2)C(=O)Nc2ccccc2)c(O)c1Cl [Example 138, N-[3,5-Dichloro-2-hydroxy-4-(4-aminobutoxy)benzoyl]-L-phenyl-alanylaminobenzene hydrochloride] |  | Inhibition (%) (ALT in blood; dose 5 mg/kg): 22%; IC50 (IL-8): 1 µM
CNCCCCNc1c(Cl)cc(C(=O)N[C@@H](Cc2ccccc2)C(=O)OC)c(O)c1Cl [Example 136, N-[3,5-Dichloro-2-hydroxy-4-(4-methylaminobutylamino)benzoyl]-L-phenylalanine methyl ester dihydrochloride] | 0.2 | 
CCOC(=O)C(Cc1ccccc1)NC(=O)c1cc(Cl)c(OCCCCNC)c(Cl)c1O (centres unmarked) [Example 21] | < 0.01 | 
CCOC(=O)C(Cc1ccccc1)NC(=O)c1cc(Cl)c(CCCC2CCNCC2)c(Cl)c1O (centres unmarked) [Example 101] | 0.003 | 
CNCCCCCc1c(Cl)cc(C(=O)N[C@@H](Cc2ccccc2)C(=O)OC)c(O)c1Cl [Example 91, N-[3,5-Dichloro-2-hydroxy-4-(5-methylaminopentyl)benzoyl]-L-phenylalanine methyl ester hydrochloride] | 0.001 | 
CCNCCCCOc1c(Cl)cc(C(=O)N[C@@H](Cc2ccccc2)C(=O)OC)c(O)c1Cl [Example 16] | 0.03 | 
CCOC(=O)C(Cc1ccccc1)NC(=O)c1cc(Cl)c(OCCCCCCCN)c(Cl)c1O (centres unmarked) [Example 26] | 0.009 | 
CN1CCN(CCOc2c(Cl)cc(C(=O)N[C@@H](Cc3ccccc3)C(=O)O)c(O)c2Cl)CC1 [Example 134] |  | IC50 (IL-8; Monocyte): 0.2 µM

Source: patent USRE39088E1, “Amide compounds and use of the same” (Japan Tobacco, Inc., priority 1995, dated 2006)
